From the supplement of paper PMC10307832

How the values were obtained:
GSK-J4 = compound: CCOC(=O)CCNc1cc(N2CCc3ccccc3CC2)nc(-c2ccccn2)n1 [GSK-J4]; experiment: relative viability (nuclei count vs DMSO), 5 days (fraction); higher = more cells survive
Outline: (§1)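 Nuclei counted with MetaXpress define viability as the ratio of treated to vehicle wells, given as a median across plates. The lung cancer cell lines were in 1536-well plates, pinned with five √10-spaced library-drug doses and imaged at 4× after 5 days and Hoechst staining. Plates passed with control CV below 25% and at least one doubling.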

AZ3146 = compound: CN1CCC(CC1)OC2=CC(=C(C=C2)NC3=NC=C4C(=N3)N(C(=O)N4C)C5CCCC5)OC [AZ3146]; experiment: as above
Outline: as §1

Row | Cell Line | relative viability (GSK-J4; 0.5 µM) | relative viability (GSK-J4; 1.581 µM) | relative viability (GSK-J4; 5 µM) | relative viability (GSK-J4; 15.81 µM) | relative viability (GSK-J4; 50 µM) | relative viability (AZ3146; 0.08 µM) | relative viability (AZ3146; 0.253 µM) | relative viability (AZ3146; 0.8 µM) | relative viability (AZ3146; 2.53 µM) | relative viability (AZ3146; 8 µM)
1 | NCI-H23 | 0.956 | 0.761 | 0.814 | 0.803 | 0.742 | 1.13 | 1.06 | 0.959 | 1.05 | 0.758
2 | NCI-H322M | 1.05 | 1.04 | 1.1 | 0.839 | 0.818 | 0.872 | 0.927 | 0.823 | 0.958 | 0.827
3 | NCI-H358 | 0.981 | 0.843 | 0.977 | 0.819 | 0.807 | 0.977 | 0.923 | 0.873 | 1.1 | 0.785
4 | NCI-H441 | 0.967 | 0.85 | 0.827 | 0.92 | 0.796 | 0.939 | 1.18 | 1.01 | 1.05 | 1.03
5 | NCI-H460 | 0.957 | 0.8 | 0.767 | 0.981 | 1.01 | 0.94 | 1.01 | 1.02 | 0.997 | 0.78
6 | NCI-H520 | 0.985 | 0.621 | 0.857 | 0.702 | 0.853 | 0.875 | 0.971 | 0.832 | 1.04 | 0.999
7 | NCI-H522 | 1.06 | 0.746 | 0.789 | 0.75 | 0.559 | 0.917 | 0.943 | 0.926 | 0.899 | 0.938
8 | NCI-H596 | 1.04 | 0.833 | 0.92 | 0.889 | 0.903 | 0.985 | 0.841 | 0.931 | 0.979 | 0.963
9 | NCI-H647 | 0.966 | 0.832 | 0.742 | 0.886 | 0.936 | 0.777 | 0.919 | 0.94 | 1.07 | 0.92
10 | NCI-H650 | 0.931 | 0.653 | 0.494 | 0.832 | 0.751 | 0.776 | 0.822 | 0.867 | 1.02 | 1.03
11 | NCI-H661 | 0.969 | 0.922 | 0.904 | 0.927 | 0.723 | 1.02 | 0.988 | 0.92 | 0.98 | 1.05
12 | NCI-H727 | 0.863 | 0.754 | 1.11 | 0.85 | 0.468 | 0.838 | 1.08 | 0.838 | 1.21 | 0.74
13 | NCI-H838 | 1.04 | 0.895 | 0.635 | 0.887 | 0.883 | 0.994 | 0.939 | 0.914 | 0.963 | 0.734
14 | NCI-H1299 | 0.982 | 0.952 | 0.877 | 0.998 | 1 | 0.987 | 0.995 | 0.996 | 1.02 | 0.992
15 | NCI-H1355 | 0.979 | 0.916 | 0.821 | 0.902 | 0.943 | 0.941 | 0.971 | 1 | 1.07 | 0.961
16 | NCI-H1395 | 1.05 | 0.893 | 0.827 | 0.964 | 0.81 | 0.958 | 0.879 | 0.86 | 0.985 | 0.85
17 | NCI-H1437 | 1.01 | 0.909 | 0.923 | 1.01 | 0.609 | 0.887 | 0.936 | 0.953 | 1.03 | 0.983
18 | NCI-H1563 | 0.952 | 1.1 | 0.892 | 0.894 | 0.985 | 0.837 | 0.973 | 1.04 | 0.902 | 0.909
19 | NCI-H1623 | 1.05 | 0.739 | 1.31 | 0.825 | 0.959 | 1.03 | 0.991 | 0.78 | 0.944 | 0.956
20 | NCI-H1648 | 0.992 | – | 1.47 | 0.496 | 0.807 | – | 0.654 | 0.924 | 0.921 | 1.03
21 | NCI-H1650 | 1.11 | 0.791 | 0.889 | 0.808 | 0.682 | 0.966 | 0.873 | 0.812 | 0.864 | 0.652
22 | NCI-H1651 | 0.986 | 0.856 | 0.973 | 0.948 | 0.96 | 0.902 | 0.879 | 0.968 | 0.952 | 1.02
23 | NCI-H1666 | 0.977 | 0.79 | 1.19 | 1 | 0.804 | 1.09 | 0.953 | 1.02 | 1.05 | 1.05
24 | NCI-H1703 | 0.936 | 0.903 | 0.815 | 0.781 | 0.804 | 0.979 | 0.901 | 0.789 | 0.806 | 0.55
25 | NCI-H1734 | 0.9 | 0.909 | 0.686 | 0.765 | 0.807 | 0.96 | 1.09 | 0.954 | 1.04 | 0.98
